Measurements from US20220241176A1, “METHOD FOR LOADING OF MICROORGANISMS ON MULTIPHASE BIOMATERIALS” (priority 2019, published 2022).

What was measured:
S. aureus [1] = test: Agar well diffusion test against S. aureus (without BNC); format: cell-based, Staphylococcus aureus
Description: For the agar diffusion test the OD600 of B. megaterium and B. subtilis was adjusted to 0.1 McFarland using sterilized saline NaCl 0.9%. The OD600 of S. aureus was adjusted to 0.5 McFarland using sterilized saline NaCl 0.9%. 20 μl of S. aureus was spread on the surface of Mueller-Hinton agar plate by a sterilized glass spreader. The wells are […] on the agar plate using the back side of a 1 ml pipette tip. A small volume of Mueller-Hinton agar was melted in boiling water bath, then 100 μl of it was used to close the bottom of each created well. After solidification of the agar in the bottom of the wells, the wells were filled with 100 μl of: Negative control, sterilized saline NaCl 0.9%, Positive control, gentamicin 300 μg/ml, B. megaterium or B. subtilis-free supernatant, B. megaterium or B. subtilis suspension.

S. aureus [2] = test: Agar diffusion test of loaded BNC fleeces against S. aureus; format: cell-based, Staphylococcus aureus
Description: The evaluation of the antibacterial activity of B. subtilis and B. megaterium loaded—BNC against gram-positive S. aureus was determined by an agar diffusion test. Therefore, the bacterial suspensions of B. subtilis and S. aureus were prepared in TSB broth medium as described before. […] 3 BNC fleeces were loaded using B. subtilis suspension in TSB medium, and 3 BNC fleeces were loaded using B. subtilis suspension in saline. Further 3 BNC fleeces were loaded using the B. subtilis free-supernatant, 3 BNC fleeces were loaded with gentamycin as positive control, and 3 BNC fleeces with isotonic saline as negative control. The OD600 of S. aureus was adjusted to 0.5 McFarland using sterilized saline NaCl 0.9% and the optical density spectrophotometer (Biophotometer) was determined. 20 μl of S. aureus was spread on the surface of Mueller-Hinton agar plate by a sterilized glass spreader. The last control and loaded BNC fleeces were added onto surface of the Mueller Hinton agar: 1. Negative control: saline-loaded BNC 2. Positive control: gentamicin-loaded BNC 3. B. subtilis-loaded BNC in TSB medium 4. B. subtilis-loaded BNC in saline 5. B. subtilis-free supernatant-loaded BNC.

Substance: gentamicin [Gentamycin]
- inhibition zone (in words) (S. aureus [1]; agar well diffusion, 100 μl per well, 37° C., 24 h): inhibition zone
- inhibition effect on S. aureus, Without BNC (S. aureus [1]; diffusion test): + (by detection of inhibition zone > 2 mm)
- inhibition effect on S. aureus, on BNC - injection technique (S. aureus [2]): + (by detection of inhibition zone > 2 mm)
- inhibition effect on S. aureus, on BNC - spray technique (S. aureus [2]): + (by detection of inhibition zone > 2 mm)
- inhibition effect on S. aureus, on BNC - vortex technique (S. aureus [2]): + (by detection of inhibition zone > 2 mm)
